Key:
Assay in all cases: relative viability (nuclei count vs DMSO), 5 days (fraction); higher = more cells survive
BAM7 + Olaparib = compound: CCOC1=CC=CC=C1N=NC2=C(NN(C2=O)C3=NC(=CS3)C4=CC=CC=C4)C [BAM7] + O=C(c1cc(Cc2n[nH]c(=O)c3ccccc23)ccc1F)N1CCN(C(=O)C2CC2)CC1 [Olaparib] (partner 8 µM)
Outline: (§1)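 Dosing by pin tool came one day after lung cancer cell lines were seeded in 1536-well plates, using either one drug or a fixed anchor-drug dose plus five library-drug doses (not always all listed) in √10 steps. After 5 days, nuclei were counted on 4× images. Relative viability is treated-well nuclei count divided by vehicle-well nuclei count, and values are medians of duplicate plates.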

[1] = compound: CCn1c(-c2nonc2N)nc2c(C#CC(C)(C)O)ncc(OC[C@H]3CCCNC3)c21 + CC(=O)Nc1cccc(-n2c(=O)n(C3CC3)c(=O)c3c(Nc4ccc(I)cc4F)n(C)c(=O)c(C)c32)c1 [Trametinib] (partner 0.02 µM)
Outline: as §1

[2] = compound: CCn1c(-c2nonc2N)nc2c(C#CC(C)(C)O)ncc(OC[C@H]3CCCNC3)c21 + COc1cccc2cc(-c3nc([C@H]4CC[C@H](C(=O)O)CC4)n4ncnc(N)c34)[nH]c12 [OSI-027] (partner 0.5 µM)
Outline: as §1

[3] = compound: CCn1c(-c2nonc2N)nc2c(C#CC(C)(C)O)ncc(OC[C@H]3CCCNC3)c21 + C[C@@H](Oc1cc(-c2cnn(C3CCNCC3)c2)cnc1N)c1c(Cl)ccc(F)c1Cl [Crizotinib] (partner 1 µM)
Outline: as §1

Cell Line | relative viability (BAM7 + Olaparib; first compound 0.5 µM) | relative viability (BAM7 + Olaparib; first compound 5 µM) | relative viability (BAM7 + Olaparib; first compound 15.81 µM) | relative viability (BAM7 + Olaparib; first compound 50 µM) | relative viability ([1]; first compound 0.01 µM) | relative viability ([1]; first compound 0.03162 µM) | relative viability ([1]; first compound 0.1 µM) | relative viability ([1]; first compound 0.3162 µM) | relative viability ([1]; first compound 1 µM) | relative viability ([2]; first compound 0.01 µM) | relative viability ([2]; first compound 0.03162 µM) | relative viability ([2]; first compound 0.1 µM) | relative viability ([2]; first compound 0.3162 µM) | relative viability ([2]; first compound 1 µM) | relative viability ([3]; first compound 0.01 µM) | relative viability ([3]; first compound 0.03162 µM) | relative viability ([3]; first compound 0.1 µM) | relative viability ([3]; first compound 0.3162 µM) | relative viability ([3]; first compound 1 µM)
NCI-H2126 | 0.892 | 0.877 | 0.905 | 0.92 | 0.568 | 0.566 | 0.65 | 0.578 | 0.61 | 0.749 | 0.69 | 0.675 | 0.624 | 0.677 | 1.01 | 1 | 0.993 | 0.974 | 1.06
NCI-H3122 | 0.428 | 0.579 | 0.416 | 0.53 | 0.242 | 0.224 | 0.236 | 0.192 | 0.242 | 0.875 | 0.913 | 0.791 | 0.317 | 0.4 | 0.276 | 0.312 | 0.264 | 0.283 | 0.276
NCI-H1975 | 0.498 | 0.617 | 0.393 | 0.602 | 0.359 | 0.393 | 0.452 | 0.281 | 0.21 | 0.747 | 0.824 | 0.616 | 0.57 | 0.6 | 0.945 | 1.08 | 0.893 | 1.03 | 0.98
NCI-H1944 | 0.345 | 0.391 | 0.326 | 0.436 | 0.452 | 0.449 | 0.393 | 0.355 | 0.401 | 0.367 | 0.403 | 0.434 | 0.37 | 0.401 | 1.07 | 1.07 | 1.02 | 1.07 | 1.09
LU99A | 0.272 | 0.257 | 0.312 | 0.254 | 0.517 | 0.611 | 0.6 | 0.524 | 0.525 | 0.284 | 0.298 | 0.283 | 0.267 | 0.282 | 0.567 | 0.556 | 0.571 | 0.494 | 0.491
SW 1573 | 0.574 | 0.583 | 0.461 | 0.46 | 0.438 | 0.553 | 0.476 | 0.381 | 0.33 | 0.59 | 0.559 | 0.514 | 0.34 | 0.27 | 0.699 | 0.767 | 0.734 | 0.762 | 0.704
NCI-H2347 | 0.588 | 0.642 | 0.625 | 0.601 | 0.251 | 0.314 | 0.242 | 0.263 | 0.332 | 0.419 | 0.42 |  | 0.466 | 0.336 | 0.7 | 0.815 | 0.723 | 0.708 | 0.813
NCI-H2009 | 0.716 | 0.727 | 0.662 | 0.663 | 0.268 | 0.274 | 0.245 | 0.301 | 0.259 | 0.577 | 0.658 | 0.578 | 0.569 | 0.584 | 0.941 | 1.03 | 1.09 | 1.02 | 1.07
HCC-15 | 0.849 | 0.695 | 0.687 | 0.728 | 0.358 | 0.352 | 0.385 | 0.39 | 0.354 | 0.576 | 0.602 | 0.626 | 0.575 | 0.595 | 0.764 | 0.868 | 0.758 | 0.748 | 0.726
HCC-44 | 0.986 | 0.952 | 0.883 | 0.987 | 1.03 | 0.98 | 1.09 | 1.07 | 1.05 |  |  | 0.484 | 0.372 | 0.499 | 0.778 | 0.803 | 0.773 | 0.786 | 0.758
NCI-H1299 | 0.961 | 1.02 | 0.981 | 0.923 |  |  |  |  |  |  |  |  |  |  | 0.935 | 0.927 | 0.948 | 0.919 | 0.997
ABC-1 | 0.765 | 1.25 | 0.638 | 0.559 |  |  |  |  |  | 0.394 | 0.36 | 0.394 | 0.31 | 0.304 | 1.37 | 1.27 | 0.867 | 1.11 | 0.608
NCI-H1793 | 0.926 | 0.882 | 0.791 | 0.95 | 0.388 | 0.393 |  | 0.401 | 0.436 | 0.279 | 0.29 | 0.232 | 0.251 | 0.252 |  |  |  |  | 
NCI-H1648 | 0.772 | 0.799 | 0.322 | 0.558 | 0.46 | 0.474 | 0.481 | 0.417 | 0.418 |  | 0.271 | 0.278 | 0.265 | 0.246 |  |  |  |  | 
NCI-H1563 |  |  |  |  |  |  |  |  |  | 0.73 | 0.783 | 0.686 | 0.688 | 0.666 | 0.853 | 0.923 | 0.799 | 0.772 | 0.81
A549 | 0.323 | 0.319 | 0.432 | 0.476 |  |  |  |  |  |  |  |  |  |  | 0.665 | 0.706 | 0.718 | 0.666 | 0.63
NCI-H522 | 0.725 | 0.585 | 0.61 | 0.643 | 0.826 | 0.763 | 0.783 | 0.667 | 0.82 | 0.673 | 0.691 | 0.741 | 0.634 | 0.748 |  |  |  |  | 
NCI-H1623 |  |  |  |  |  |  |  |  |  | 0.391 | 0.423 | 0.485 | 0.438 | 0.395 |  |  |  |  | 
SW 900 |  | 0.847 |  | 0.786 | 0.635 | 0.798 | 0.762 | 0.545 | 0.891 | 0.452 | 0.321 | 0.507 | 0.435 | 0.562 |  |  |  |  | 
NCI-H1395 | 0.492 | 0.472 | 0.445 | 0.425 | 0.947 | 0.864 | 0.935 | 0.705 | 0.818 | 0.496 | 0.597 | 0.552 | 0.556 | 0.555 |  |  |  |  | 
IA-LM | 0.912 | 0.794 | 0.797 | 0.775 |  |  |  |  |  |  |  |  |  |  | 0.824 | 0.601 | 0.862 | 0.703 | 0.323
EBC-1 | 0.712 | 0.644 | 0.626 | 0.763 |  |  |  |  |  |  |  |  |  |  | 0.161 | 0.194 | 0.223 | 0.159 | 0.197

Reference: the supplement of paper PMC10307832
